Experimental data from PubChem BioAssay (NCI).
Several values for one entry are separate records, joined by “and”; a condition that tells them apart may be missing. Equal entries are not always repeated.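 Assay format: 96-well plates, 48-hour exposure. Abbreviation: GI50, concentration required for 50% inhibition of growth. The concentration for full growth arrest is given as TGI.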

Experiments:
Assay in all cases: NCI-60 cell line screen, 48 h
OVCAR-3 ovarian = system: OVCAR-3 ovarian
HS 578T breast = system: HS 578T breast
HOP-62 NSCLC = system: HOP-62 NSCLC
SR leukemia = system: SR leukemia
UO-31 renal = system: UO-31 renal
MCF7 breast = system: MCF7 breast
A498 renal = system: A498 renal
KM20L2 colon = system: KM20L2 colon
HCC-2998 colon = system: HCC-2998 colon
T-47D breast = system: T-47D breast
MALME-3M melanoma = system: MALME-3M melanoma
HOP-18 NSCLC = system: HOP-18 NSCLC
COLO 205 colon = system: COLO 205 colon
HOP-92 NSCLC = system: HOP-92 NSCLC
NCI-H460 lung = system: NCI-H460 lung
CCRF-CEM leukemia = system: CCRF-CEM leukemia
M14 melanoma = system: M14 melanoma
DMS 273 small cell lung = system: DMS 273 small cell lung
RPMI-8226 leukemia = system: RPMI-8226 leukemia
DMS 114 small cell lung = system: DMS 114 small cell lung
DU-145 prostate = system: DU-145 prostate
EKVX NSCLC = system: EKVX NSCLC
SK-MEL-2 melanoma = system: SK-MEL-2 melanoma
LOX IMVI melanoma = system: LOX IMVI melanoma
UACC-62 melanoma = system: UACC-62 melanoma
A549 NSCLC = system: A549 NSCLC
SK-MEL-5 melanoma = system: SK-MEL-5 melanoma
MDA-MB-231 breast = system: MDA-MB-231 breast
NCI-H226 lung = system: NCI-H226 lung
HCT-15 colon = system: HCT-15 colon
HL-60(TB) leukemia = system: HL-60(TB) leukemia
SN12C renal = system: SN12C renal
TK-10 renal = system: TK-10 renal
LXFL 529 NSCLC = system: LXFL 529 NSCLC
HT29 colon = system: HT29 colon
OVCAR-5 ovarian = system: OVCAR-5 ovarian
786-0 renal = system: 786-0 renal
M19-MEL melanoma = system: M19-MEL melanoma
NCI-H522 lung = system: NCI-H522 lung
PC-3 prostate = system: PC-3 prostate
SW-620 colon = system: SW-620 colon
ACHN renal = system: ACHN renal
MDA-MB-435 = system: MDA-MB-435
SK-OV-3 ovarian = system: SK-OV-3 ovarian
HCT-116 colon = system: HCT-116 colon
RXF 393 renal = system: RXF 393 renal
MOLT-4 leukemia = system: MOLT-4 leukemia
DLD-1 colon = system: DLD-1 colon
NCI-H23 lung = system: NCI-H23 lung
IGROV1 ovarian = system: IGROV1 ovarian
K-562 leukemia = system: K-562 leukemia
CAKI-1 renal = system: CAKI-1 renal
BT-549 breast = system: BT-549 breast
UACC-257 melanoma = system: UACC-257 melanoma
OVCAR-8 ovarian = system: OVCAR-8 ovarian
KM12 colon = system: KM12 colon
SK-MEL-28 melanoma = system: SK-MEL-28 melanoma
OVCAR-4 ovarian = system: OVCAR-4 ovarian
NCI/ADR-RES ovarian = system: NCI/ADR-RES ovarian

Compound: CC[C@H](C)C(=O)O[C@H]1C[C@@H](C)C=C2C=C[C@H](C)[C@H](CC[C@@H]3C[C@@H](O)CC(=O)O3)[C@H]21
- GI50 (OVCAR-3 ovarian): 16.2 µM and 25.2 µM
- TGI (OVCAR-3 ovarian): > 100 µM
- GI50 (HS 578T breast): 5.08 µM and 5.36 µM
- TGI (HS 578T breast): > 100 µM
- TGI (HOP-62 NSCLC): > 100 µM
- GI50 (SR leukemia): 3 µM and 3.5 µM
- TGI (SR leukemia): 17.3 µM and 25.4 µM and > 30 µM
- GI50 (UO-31 renal): 11 µM and 4.7 µM
- TGI (UO-31 renal): 80.7 µM and 29.6 µM and 14.2 µM
- GI50 (MCF7 breast): 32.1 µM and 14.9 µM
- TGI (MCF7 breast): > 100 µM
- GI50 (A498 renal): 0.283 µM and 0.162 µM
- TGI (A498 renal): 2.2 µM and 1.1 µM and 2.82 µM
- TGI (KM20L2 colon): > 30 µM
- GI50 (HCC-2998 colon): 26.3 µM and 25.1 µM
- TGI (HCC-2998 colon): > 100 µM
- GI50 (T-47D breast): 32.5 µM and 19.6 µM
- TGI (T-47D breast): > 100 µM
- GI50 (MALME-3M melanoma): 14.1 µM and 15.2 µM
- TGI (MALME-3M melanoma): > 100 µM and 31.6 µM and > 30 µM
- TGI (HOP-18 NSCLC): > 30 µM
- GI50 (COLO 205 colon): 14.6 µM and 15.3 µM
- TGI (COLO 205 colon): 51.3 µM and > 52.4 µM and 14.7 µM
- GI50 (HOP-92 NSCLC): 0.172 µM and 0.102 µM
- TGI (HOP-92 NSCLC): 0.649 µM and 0.657 µM and 0.141 µM
- GI50 (NCI-H460 lung): 11.4 µM and 5.59 µM
- TGI (NCI-H460 lung): > 100 µM
- GI50 (CCRF-CEM leukemia): 27.4 µM and 13.5 µM
- TGI (CCRF-CEM leukemia): > 100 µM
- GI50 (M14 melanoma): 6.25 µM and 7.89 µM
- TGI (M14 melanoma): > 100 µM
- TGI (DMS 273 small cell lung): > 30 µM
- GI50 (RPMI-8226 leukemia): 8.88 µM and 8.95 µM
- TGI (RPMI-8226 leukemia): > 100 µM and 53.7 µM and > 30 µM
- TGI (DMS 114 small cell lung): > 30 µM
- GI50 (DU-145 prostate): 43.8 µM and 35.5 µM
- TGI (DU-145 prostate): > 100 µM
- GI50 (EKVX NSCLC): 4.32 µM and 6.61 µM
- TGI (EKVX NSCLC): > 100 µM
- GI50 (SK-MEL-2 melanoma): 1.7 µM and 1.12 µM
- TGI (SK-MEL-2 melanoma): 8.32 µM and 9.48 µM and > 30 µM
- GI50 (LOX IMVI melanoma): 0.932 µM
- TGI (LOX IMVI melanoma): 21.3 µM and 6.82 µM and 7.71 µM
- GI50 (UACC-62 melanoma): 2.83 µM and 2.59 µM
- TGI (UACC-62 melanoma): 18.9 µM and 17.2 µM and > 30 µM
- GI50 (A549 NSCLC): 12.1 µM
- TGI (A549 NSCLC): > 100 µM
- GI50 (SK-MEL-5 melanoma): 10.7 µM and 2.97 µM
- TGI (SK-MEL-5 melanoma): > 100 µM and 10.7 µM and 16.1 µM
- GI50 (MDA-MB-231 breast): 0.495 µM and 0.31 µM
- TGI (MDA-MB-231 breast): 3.5 µM and 1.51 µM
- GI50 (NCI-H226 lung): 10.1 µM and 6.22 µM
- TGI (NCI-H226 lung): 54.7 µM and > 51 µM and > 30 µM
- GI50 (HCT-15 colon): 5.46 µM and 1.47 µM
- TGI (HCT-15 colon): > 100 µM
- GI50 (HL-60(TB) leukemia): 15.9 µM and 19.9 µM
- TGI (HL-60(TB) leukemia): 60.6 µM and 50.6 µM and > 30 µM
- GI50 (SN12C renal): 3.02 µM
- GI50 (TK-10 renal): 26.3 µM and 19.3 µM
- TGI (TK-10 renal): > 100 µM
- TGI (LXFL 529 NSCLC): > 30 µM
- GI50 (HT29 colon): 24.7 µM and 21.4 µM
- TGI (HT29 colon): > 100 µM
- GI50 (OVCAR-5 ovarian): 12.5 µM and 10.3 µM
- TGI (OVCAR-5 ovarian): > 100 µM and 32.9 µM and > 30 µM
- GI50 (786-0 renal): 12.9 µM and 6.14 µM
- TGI (786-0 renal): > 100 µM and 20.8 µM and > 30 µM
- TGI (M19-MEL melanoma): > 30 µM
- GI50 (NCI-H522 lung): 1.98 µM and 1.66 µM
- TGI (NCI-H522 lung): 8.53 µM and 22.3 µM
- GI50 (PC-3 prostate): 0.967 µM and 1.76 µM
- TGI (PC-3 prostate): > 100 µM
- GI50 (SW-620 colon): 10 µM and 10.1 µM
- TGI (SW-620 colon): > 100 µM
- GI50 (ACHN renal): 3.43 µM and 1.38 µM
- TGI (ACHN renal): 29.8 µM and 6.03 µM and 23.4 µM
- GI50 (MDA-MB-435): 20.2 µM and 15 µM
- TGI (MDA-MB-435): > 100 µM
- GI50 (SK-OV-3 ovarian): 7.58 µM and 6.68 µM
- TGI (SK-OV-3 ovarian): > 100 µM
- GI50 (HCT-116 colon): 3.77 µM and 2.05 µM
- TGI (HCT-116 colon): 24.5 µM and 16.2 µM
- GI50 (RXF 393 renal): 3.48 µM
- TGI (RXF 393 renal): 31.8 µM and 13.8 µM and 17.3 µM
- GI50 (MOLT-4 leukemia): 49.2 µM and 21.4 µM
- TGI (MOLT-4 leukemia): > 100 µM and 53.4 µM and > 30 µM
- TGI (DLD-1 colon): > 30 µM
- GI50 (NCI-H23 lung): 5.37 µM and 8.14 µM
- GI50 (IGROV1 ovarian): 3.22 µM and 5.31 µM
- TGI (IGROV1 ovarian): 23.2 µM and 29 µM and > 30 µM
- GI50 (K-562 leukemia): 27.7 µM and 12.8 µM
- TGI (K-562 leukemia): > 100 µM
- GI50 (CAKI-1 renal): 2.14 µM and 1.9 µM
- TGI (CAKI-1 renal): 6.59 µM and 6.21 µM and 4.78 µM
- GI50 (BT-549 breast): 11.3 µM and 8.48 µM
- TGI (BT-549 breast): > 100 µM and 25.2 µM
- GI50 (UACC-257 melanoma): 32.5 µM and > 46.2 µM
- TGI (UACC-257 melanoma): > 100 µM
- GI50 (OVCAR-8 ovarian): 2.96 µM and 6.79 µM
- TGI (OVCAR-8 ovarian): > 100 µM
- GI50 (KM12 colon): 26.4 µM
- TGI (KM12 colon): > 100 µM
- GI50 (SK-MEL-28 melanoma): 14.4 µM and 10.4 µM
- TGI (SK-MEL-28 melanoma): > 100 µM and 27.1 µM and > 30 µM
- GI50 (OVCAR-4 ovarian): 10.9 µM and 17.6 µM
- TGI (OVCAR-4 ovarian): 61.1 µM and > 55.5 µM and > 30 µM
- GI50 (NCI/ADR-RES ovarian): 2.63 µM and 2.95 µM
- TGI (NCI/ADR-RES ovarian): > 100 µM
